Assay results from patent US9464064B2, “HCV helicase inhibitors and methods of use thereof” (University of Kansas, priority 2011, dated 2016).

Tests used:
HCV helicase = molecular target: T1, HCV helicase (Hepatitis C virus genotype 1b, UniProt Q9WMX2); test: MBHA with RNA substrate (HCV helicase-catalyzed RNA unwinding); assay type: biochemical; details: in words
T1 construct: truncated C-terminally His-tagged NS3 proteins lacking the N-terminal protease, called NS3h; His-tag (C); made in house
T1 sequence (Q9WMX2 1192-1657): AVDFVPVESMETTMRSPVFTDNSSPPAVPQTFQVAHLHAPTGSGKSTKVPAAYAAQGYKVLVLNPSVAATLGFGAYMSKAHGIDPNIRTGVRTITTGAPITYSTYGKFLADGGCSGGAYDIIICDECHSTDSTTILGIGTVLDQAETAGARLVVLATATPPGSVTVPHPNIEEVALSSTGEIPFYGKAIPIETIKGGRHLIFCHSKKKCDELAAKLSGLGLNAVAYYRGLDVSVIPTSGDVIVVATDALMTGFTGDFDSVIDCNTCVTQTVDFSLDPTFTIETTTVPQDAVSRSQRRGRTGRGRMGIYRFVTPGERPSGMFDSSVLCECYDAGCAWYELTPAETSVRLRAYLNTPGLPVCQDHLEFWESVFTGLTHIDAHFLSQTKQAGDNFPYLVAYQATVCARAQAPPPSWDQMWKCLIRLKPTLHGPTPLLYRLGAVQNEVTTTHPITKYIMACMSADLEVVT
From the text: All oligonucleotides were purchased from Integrated DNA Technologies (IDT, Coralville, Iowa). The partially duplex DNA substrates used in MBHAs consisted of a helicase substrate forming 25 base pairs and consists of a 45-mer bottom strand 5′-GCTCCCCGTTCATCGATTGGGGAGC(T)20-3′ (SEQ ID NO:1) and the 25-mer HCV top strand 5′-Cy5-GCTCCCCAATCGATGAACGGGGAGC-IBRQ-3′ (SEQ ID NO:2). The 19 base pair RNA substrate used in MBHAs was composed of a 39 nucleotide long bottom strand 5′-AGU GCC UUG ACG AUA CAG C(U)20-3′ (SEQ ID NO:3) and the 24 nucleotide long top strand 5′-Tye^665-AGUGCGCUGUAUCGUCAAGGCACU-IBRQSp-3′ (SEQ ID NO:4). Underlined areas denote hairpin-forming regions. DNA and RNA substrates were annealed and purified as described previously (Belon & Frick (2008) BioTechniques 45:433-40, 442).
All molecular beacon-based helicase assays (MBHAs) were performed according to known methods (Belon & Frick (2008) supra; Belon & Frick (2009) supra). […] In each flat, black 384-well plate, 56 compounds were tested, in triplicate, along with three negative controls (DMSO only), three positive controls (500 nM dT20), and two wells with no enzyme. Fluorescence was read before ATP (F0) addition and 30 minutes after ATP was added to 1 mM (F30) using a Tecan Infinite M200 fluorescence microplate reader with excitation and emission wavelengths set to 643 and 670 nm, respectively. Percent inhibition was calculated with equation 1, and compound interference in the MBHA was calculated with equation 2.
To monitor helicase reaction kinetics and to calculate IC50 values, MBHAs were performed in 60 μL in white ½ area 96-well plates and measured in a Thermo Varioscan Multimode reader (Thermo Scientific) using the 643 nm excitation wavelength and 667 emission wavelengths. […] Initial reaction velocities were calculated by fitting first-order decay equation to data obtained after ATP addition and calculating an initial velocity form the resulting amplitude and rate constant.

[1] = Plasma protein binding (RED), human; assay type: in vitro ADME
Procedure: TEFLON Base Plate wells were rinsed with 20% ethanol for 10 minutes. Ethanol was then removed and wells were rinsed with ultrapure water and allowed to dry. RED (rapid equilibrium dialysis) inserts from Thermo Scientific (Pierce) were placed (open end up) into the wells of the base plate. All liquid was dispensed and transfer steps were performed with the FREEDOM EVO automated liquid handler (Tecan US). The sample chambers (red ring) contained 300 μl of a mixture of plasma and compound, and the buffer chambers received 500 μl of dialysis buffer (1×PBS, pH7.4). Duplicate inserts were made for each concentration tested. The base plate was covered with sealing tape and incubated at 37° C. on an orbital shaker at 350 rpm for 4 hours. After the incubation time, equal volumes from both chambers were removed and transferred to a 96 well plate containing either plasma or buffer. […] The amount of compound in the supernatant was determined by LC/MS/MS (Applied Biosystems, Sciex API4000 Q-Trap). The percent of free and bound compounds were calculated with the following formula: % of bound parent compound=[(amount of compound in donor-receiver/amount of compound in donor)×100]. Results reported are the mean of each reaction duplicate, normalized to the internal standard, and expressed as a percent compound bound after the incubation time. […]

HCV replicon RNA = test: HCV RNA RT-qPCR assay in replicon cells; assay type: cell-based, hepatitis C virus; details: qRT-PCR, 10 days of treatment
Procedure: For the HCV RNA reverse transciptase quantitative PCR (RT-qPCR) assay, cells were treated, washed 2 times with PBS, harvested, and collected by centrifugation (1000 g) for 5 minutes at 4° C. Total RNA was then extracted using the TRIZOL kit (Invitrogen) and suspended in 30 μL of nuclease-free water. RNA concentration was determined from A260. RT-qPCR was performed using TAQMAN probes, 1 μg total RNA and the QSCRIPT One-step Fast qRT-PCR kit (Quanta Biosciences, Gaithersburg, Md.). Reverse transcription was carried out at 50° C. for 20 minutes followed by one cycle at 95° C. for 5 minutes and 40 cycles at 95° C. for 15 seconds and 60° C. for 1 minute. […] The amount of HCV RNA in each sample was determined by first calculating the ΔCT of each sample, which was obtained by subtracting the threshold cycle (CT) obtained with the rRNA primers obtained from that of the CT with the HCV primers. ΔΔCT values were obtained by subtracting ΔCT values obtained in the presence of compound from ΔCT obtained with cells treated with DMSO only. The relative changes in HCV RNA levels were then calculated by assuming that each CT difference reflected a two-fold difference in RNA level (i.e., Expression=2^−ΔΔCT).

[2] = test system: NS5A in Huh7.5/HCV Con1sg Rluc replicon cells; test: Western blot of NS5A in replicon cells; assay type: cell-based, hepatitis C virus; details: 4-day exposure
Procedure: To analyze effects on HCV proteins expression by western blot, Huh7.5/HCV Con1sg Rluc replicon stable cells were washed with PBS, harvested in PBS, and lysed with RIPA buffer for 20 minutes on ice and cleared lysates were obtained by centrifugation at 14,000 rpm for 20 minutes at 4° C. Protein concentrations were determined with the BIO-RAD protein assay kit (Bio-Rad) and 15 μg total proteins was resolved on 10% sodium dodecyl sulfate-polyacrylamide gel electrophoresis (SDS-PAGE) and transferred to nitrocellulose membrane. The blots were probed with primary anti-NS5A mAb (Meridian life Sciences, Saco, Me.) and a peroxidase-conjugated secondary antibody (Cell Signaling, Danvers, Mass.) and were developed with enhanced chemiluminescence (ECL) detection reagents (Pierce, Rockford, Ill.). The blots were stripped and probed again with primary anti-tubulin antibody (Sigma) to confirm equal loading of protein and a peroxidase-conjugated anti-mouse secondary antibody (Cell Signaling) and developed with ECL reagents (Pierce).
To further characterize the anti-viral activity of this class of compounds, HCV Renilla luciferase (Rluc) subgenomic replicon cells were exposed to different concentrations of compound 24 and the effect of compound 24 on HCV replication was assessed on HCV Rluc reporter gene activity. […]

Cc1ccc2nc(-c3ccc4nc(-c5ccc(NC(=O)c6cccc(Cl)c6)cc5)sc4c3)sc2c1S(=O)(=O)O [Compound 17, 2′-(4-(3-chlorobenzamido)phenyl)-6-methyl-[2,6′-bibenzo[d]thiazole]-7-sulfonic acid]
effect on HCV helicase catalyzed RNA unwinding (HCV helicase): inhibited HCV helicase-catalyzed RNA-unwinding
fraction unbound at 4 h, 1 μM ([1]; pH 7.4, 1 μM, read-out: Plasma Protein Binding (% Bound) Human (converted)): 0.02
fraction unbound at 4 h, 10 μM ([1]; pH 7.4, 10 μM, read-out: Plasma Protein Binding (% Bound) Human): 0.01

Cc1ccc2nc(-c3ccc4nc(-c5ccc(NC(=O)c6cc(C(F)(F)F)cc(C(F)(F)F)c6)cc5)sc4c3)sc2c1S(=O)(=O)O [Compound 24, 2′-(4-(3,5-bis(trifluoromethyl)benzamido)phenyl)-6-methyl-[2,6′-bibenzo[d]thiazole]-7-sulfonic acid]
decrease of HCV replicon RNA content (HCV replicon RNA): about 13 fold
cellular NS5A levels [2]: reduced NS5A levels in a time-dependent manner
